Test results reported in article PMC3539823 (Journal of medicinal chemistry, 2012).

Tests used:
GLS = target: T1, GLS (Homo sapiens, UniProt O94925); conditions: previously reported; cited from earlier work
T1 sequence (O94925 124-669 limits assumed): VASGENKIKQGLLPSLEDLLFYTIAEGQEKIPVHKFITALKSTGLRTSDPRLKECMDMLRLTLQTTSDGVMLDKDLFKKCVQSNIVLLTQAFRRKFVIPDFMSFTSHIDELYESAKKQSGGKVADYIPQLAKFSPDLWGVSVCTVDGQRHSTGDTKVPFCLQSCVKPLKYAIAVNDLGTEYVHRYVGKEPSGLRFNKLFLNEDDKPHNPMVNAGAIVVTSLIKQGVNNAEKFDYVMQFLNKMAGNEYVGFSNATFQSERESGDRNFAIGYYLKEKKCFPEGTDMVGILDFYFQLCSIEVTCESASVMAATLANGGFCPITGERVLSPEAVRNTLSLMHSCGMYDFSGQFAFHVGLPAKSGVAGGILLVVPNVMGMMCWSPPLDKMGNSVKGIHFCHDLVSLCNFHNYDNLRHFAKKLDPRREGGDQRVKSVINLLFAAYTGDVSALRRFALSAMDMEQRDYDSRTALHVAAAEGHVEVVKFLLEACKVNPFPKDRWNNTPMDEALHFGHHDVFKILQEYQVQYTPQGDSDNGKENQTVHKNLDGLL

[1] = mouse liver microsomes, phase I
[2] = system: P493 human lymphoma B cells; experiment: P493 cell proliferation assay; assay type: cell-based; conditions: P493-6, read-out: IC50 (growth of P493 cells)

Row | SMILES | fold increase in IC50 value from 3 to 5 (GLS) [fold] | stability against microsomes in the presence of NADPH [1] | IC50 [2] [µM]
1 | Nc1nnc(CCSCCc2nnc(N)s2)s1 [Compound 5, Bis-[2-(5-Amino-[1,3,4]thiadiazol-2-yl)-ethylsulfide]] | 50 | – | –
2 | Nc1nnc(CCCCc2nnc(NC(=O)Cc3ccccc3)s2)s1 [Compound 11b, N-(5-(4-(5-amino-1,3,4-thiadiazol-2-yl)butyl)-1,3,4-thiadiazol-2-yl)-2-phenylacetamide] | – | completely stable | –
3 | O=C(CCCCc1nnc(NC(=O)Cc2ccccc2)s1)NCCN1CCCC1 [Compound 29a, 5-(5-(2-phenylacetamido)-1,3,4-thiadiazol-2-yl)-N-(2-(pyrrolidin-1-yl)ethyl)pentanamide] | – | completely stable | ~40
